Results published in BigSolDB 2.1.

Oc1ccc(/C=C/c2cc(O)cc(O)c2)cc1
solubility (mole fraction)
Details | 273.2 K | 283.2 K | 293.2 K | 303.2 K | 313.2 K | 323.2 K
in acetone | 0.0846 | 0.0858 | 0.0871 | 0.0877 | 0.0886 | –
in ethanol | 0.0101 | 0.0127 | 0.0156 | 0.0182 | 0.0208 | 0.0236
in water | – | – | 2.9e-06 | 4.57e-06 | 6.46e-06 | 9.3e-06
